The record followed here is patent US20130202649A1, “ACTIVATION OF INNATE IMMUNITY FOR NUCLEAR REPROGRAMMING OF SOMATIC CELLS” (The Board of Trustees of the Leland Stanford Junior …, priority 2012, published 2013).

Some results are limits rather than exact numbers.

The subject of test [1] is MEFs expressing a dox-inducible polycistronic transgene construct encoding the four reprogramming factors. The experiment in a line: Doxycycline-inducible iPSC generation from secondary MEFs. It counts as cell-based, mouse. The conditions noted are these: Dox-treated MEFs. How it is done:
To further test the hypothesis that TLR3 activation was required for efficient reprogramming, we isolated MEFs from murine embryos expressing a doxycycline (Dox)-inducible polycistronic transgene construct encoding the four reprogramming factors. To generate iPSCs, 10^5 MEFs/per well in 6-well plates were treated with Dox. In some wells, poly I:C was also added for the initial 6 days of the reprogramming process. In other wells, cells were infected with pMX-GFP on the first day of Dox treatment. Poly I:C or pMX-GFP each accelerated the expression of Oct4 and Sox2 (FIG. 6A). […] Similarly, infection with pMX-GFP seemed to accelerate colony formation, as a number of small colonies were observed by day 7 in the viral particle infected group (FIG. 16). By day 14, typical mES-like colonies appeared, many of which had activated SSEA-1. At this time point, the number of typical SSEA-1^+ colonies were increased by 7-8 fold in wells exposed to viral particles or poly I:C (FIG. 6B). Colony number increased further by day 21-28 (FIGS. 6B and 6C). […]
Doxycycline-induced iPSCs: As previously described (Wernig et al., 2008), MEFs from chimeric embryos at E13.5 were isolated. […] The generation of iPSC colonies was monitored daily and scored at days 14 and 21. […]

A further test has as its system human fibroblasts. The experiment in a line: CPP-induced generation of human iPSCs. It counts as cell-based. The text has this:
It is known that persistent expression (about 2 weeks) of the reprogramming factors is required using viral vectors to generate mouse iPSCs. […] We hypothesized that activation of the TLR3 pathway might facilitate epigenetic alterations required for full transcriptional effect of the CPPs. We also attempted to mimic the biphasic effect of the reprogramming factors introduced as viral vectors by reducing the dose of CPPs after 6 days. Accordingly, we exposed human fibroblasts to the four CPP-transcription factors (Oct4-R11, Sox2-R11, Klf4-R11 and cMyc-R11) (at a dose of 200 nM for days 1-6, and a dose of 100 nM for days 7-21), in the presence or absence of poly I:C (300 ng/ml) for days 1-6 (FIG. 7A). The cultures were transferred to feeder cells (inactivated MEFs) at day 26. In the presence of poly I:C, Oct4 expression was accelerated (FIG. 7B). […] Small colonies were observed by day 21 and ES like colonies appeared by day 30, many of which expressed TRA-1-81 as indicated by live cell staining. By contrast, in human fibroblasts not exposed to poly I:C, colonies were not observed until day 30 days. By day 40, colony number was increased by more than 4-fold in cells exposed to poly I:C (FIG. 7C). Application of our insights regarding the role of TLR3 signaling in nuclear reprogramming permitted us to successfully reprogram human fibroblasts to pluripotency using CPPs.
Protein-iPSCs: Recombinant Oct4, Sox2, Klf4, and cMyc human proteins (CPPs) contained an eleven-arginine membrane penetration domain at the C terminus were obtained from Stemgent. Human fibroblasts were treated with CPPs encoding the reprogramming factors (CPP-Oct4, CPP-Sox2, CPP-Klf4 and CPP-Myc) daily for 6 days with 200 nM CPPs, followed by daily treatments of 100 nM CPPs from day 7 to day 20. Poly I:C (300 ng/ml) or vehicle was added to the cell simultaneously only up to day 6. The cells were passed onto MEF feeders at day 30. After 20 days of CPP treatments, wells were closely scanned for colonies.
Immunostaining of Live Cells For the detection of SSEA-1 or TRA-1-81 in live cells, the primary Ab (anti-mouse SSEA-1, antihuman TRA-1-81, Stemgent) was diluted to a final concentration of 2.5 to 5 μg/ml in fresh cell culture medium and incubated with cells for 30 minutes at 37° C. and 5% CO2. After gentle washing the cells were examined under a fluorescent microscope.

For the next test, the system named is Oct4 and Sox2 promoters. The experiment in a line: ChIP of histone H3 trimethylation at Oct4 and Sox2 promoters. The class given is cell-based, human. On the procedure:
We hypothesized that TLR3 activation might enhance early transcriptional activation by inducing an open chromatin state, permitting the reprogramming factors to induce an ESC-specific gene expression pattern. Accordingly, we performed ChIP assays to detect trimethylation of histone H3 at lysine 4 (H3K4me3). This epigenetic modification marks transcriptionally active genes. Human fibroblasts were treated with pMXSox2, or with CPPSox2 in the presence of poly I:C or pMXGFP. […] In a similar fashion, we assessed histone H3 at lysine 9 (H3K9me3) in the Oct4 and Sox2 promoters. This epigenetic modification marks transcriptionally silenced genes. […] These studies provided an epigenetic mechanism to explain the effect of TLR3 activation to enhance nuclear reprogramming.
Chromatin Immunoprecipitation and ChIP-qPCR qChIP was performed as previously described (Lim et al., 2009; Peng et al., 2009). For qChIP and qRT-PCR, error estimates are standard deviations. Recovery of genomic DNA as the percentage input was calculated as the ratio of copy numbers in the immunoprecipitate to the input control. Primers of Oct4 and Sox2 promoters were purchased from Cell Signaling.

The next test has as its system NF-κB. Kind of test: NF-κB luciferase assay. The class given is cell-based, human. As to conditions: BJ fibroblasts; poly IC 300 ng/ml. On the procedure: NF-κB Luciferase assay BJ fibroblasts (3×105) were seeded in a 6-well plate and subjected to either pMX-GFP infection, CPP-SOX2 treatment with or without poly IC (300 ng/ml). Cells were transfected with pNF-κB-Luc and pFC-MEKK as a positive control plasmid using Lipofectamine 2000. Twentyfour hours post-transfection, cells were collected for measuring the luciferase activity by the Bright-Glo™ Luciferase Assay System using a luminometer.

Setting [2] is: in combination with CPPSox2, day 2.

Regarding “Polyinosinicpolycytidylic acid [Poly I:C]”, the “changes in the morphology of the MEFs” value in test [1] (3 days) is recorded as “accelerated changes in the morphology”. Further, the “expression of Oct4 and Sox2” value in test [1] (poly I:C initial 6 days or pMX-GFP on first day) is “accelerated”. Besides, the “increase in colony number” value with human fibroblasts (day 40, cells exposed to poly I:C versus not) is given as “more than 4 fold”. The Oct4 expression result in the test with human fibroblasts (four CPPs 200 nM days 1-6, 100 nM days 7-21, poly I:C 300 ng/ml days 1-6) is “accelerated”. The iPSC generation entry in the test on human fibroblasts (four CPPs plus poly I:C 300 ng/ml days 1-6) is on record as “accelerated iPSC generation”. For the same substance, the “small colonies observed by” value with human fibroblasts (four CPPs plus poly I:C 300 ng/ml days 1-6, without poly I:C not until day 30) was at most 21 days. Also, in the test on Oct4 and Sox2 promoters (CPP-treated fibroblasts), the “H3K4 trimethylation at the Sox2 promoter” value is recorded as “accelerated H3K4 trimethylation” and the “H3K9 trimethylation at the Sox2 promoter” value is reported as “accelerated the loss of H3K9 trimethylation”. Further, the “H3K4 trimethylation at the Oct4 promoter” value with Oct4 and Sox2 promoters (agent alone, day 2 (time course day 2-6)) is listed as “had no effect”. Moreover, in the test on Oct4 and Sox2 promoters (setting [2]), the “H3K4 trimethylation at the Oct4 promoter” value is “induced changes in H3K4 trimethylation” and the “H3K9 trimethylation at the Oct4 promoter” value is reported as “enhanced the H3K9 trimethylation”. In the test on NF-κB, the “NF-κB activation (luciferase reporter)” value is given as “induced NF-κB activation”.
